Measured values: US11780822B2, “HDAC inhibitor solid state forms” (Viracta Subsidiary, Inc., priority 2019, dated 2023)
“Also recorded” adds a separate entry of the source. Values belong to the molecule of their own block, whether it stands above or below them.

Key:
Format in all cases: physicochemical
[1] = Competitive suspension equilibrations of Form A + Form B composites; conditions: stirred overnight
Experimental: Objective: Determine the fates of the Form A and Form B when equilibrated in ethanol under anhydrous and aqueous conditions at 20° C. and 40° C.
Procedure: Composites, prepared from equimolar amounts of Form A and Form B were charged to separate vials and ethanol (13 vol) or ethanol/water (10/3 v/v, 13 vol) were added. The two pairs of mixtures were stirred at 20° C. or 40° C. overnight.

[2] = Effect of elevated humidity, desiccator analysis at equilibrium humidity; conditions: for Δwt. Percent: RH 75-80%; for Output Form designation (XRPD): after exposure to 75 to 80% RH at 18 to 23° C. for 72 h
Experimental: The effect of elevated humidity (75 to 80% RH at 18 to 23° C.) on the thermally dehydrated Form A residue from the preceding experiment, was examined via conventional desiccator analysis at equilibrium humidity. Compound 1 Form A (ca. 16 mg) was heated at a rate of +10° C./min from 20 to 160° C. to include the first endothermic event and exclude the second event (see FIG. 2). The content of the spent crucible was exposed to 75 to 80% RH (relative humidity) at 18 to 23° C. for 72 h. The corresponding weight changes were recorded and the internal conditions of the humidity enclosures were monitored. The absorbent increased in weight (refer to Table 4), but this was not accompanied by a significant change in the diffraction pattern, or dehydration event by DSC.

[3] = Dynamic Vapor Sorption (DVS) analyses; conditions: for Hygroscopicity by DVS: 25° C., RH 0-90-0%; for Weight lost during the pre-equilibration: DVS at 25° C., drying 0% RH for 120 min
Experimental: Use the following parameters: • Equilibrium: dm/dt: 0.002%/min. (for min: 10 min and max: 180 min). • Drying: 0% RH for 120 min • RH (%) measurement step: 5% • RH (%) measurement step scope: 0-90-0% The criteria for hygroscopicity evaluation are listed in below: DVS analysis was performed on compound 1 Form A and compound 1 Form B to determine the degree of hygroscopicity. The results are provided in FIGS. 13A, FIG. 13B, FIG. 14A and FIG. 14B.

[4] = Thermal investigations (heating in DSC, residue analysed by XRPD or 1H NMR)
Experimental: A Mettler Toledo DSC 821 instrument was used for the thermal analysis operating with STARe™ software. The analysis was conducted in […], open aluminum pans, under nitrogen and sample sizes ranged from 1 to 10 mg. Typical analysis method was 20 to 250 at 10° C./minute.
Procedure: First experiment-A sample of compound 1 Form A containing 5.1% w/w water and 0.2% w/w ethanol (ca. 16 mg) was heated at a rate of +10° C./min from 20 to 160° C. to include the first endothermic event and exclude the second event (refer to FIG. 2).
(§1) Procedure: First event: A sample of compound 1 Form C (ca. 7 mg) was heated at a rate of +10° C./min from 20 to 120° C. to include the first endothermic event (refer to FIG. 9). The content of the spent crucible was expressed, the residue was analyzed by XRPD and the diffraction pattern was compared to the input diffraction pattern.
as §1, with “Third” for “Procedure: First”, “5” for “7”, “150°” for “120°”, “multiple thermal events” for “first endothermic event”
Procedure: First event: a sample of compound 1 Form E (ca. 8 mg) was heated at a rate of +10° C./min from 20 to 160° C. to include the first endothermic event and exclude the second event (refer to FIG. 11). The content of the spent crucible was expressed, the residue was analyzed by XRPD and the diffraction pattern was compared to the input diffraction pattern (see FIG. 12).

[5] = Suspension equilibration of single Form A and B under production conditions; conditions: 40° C., stirred overnight
Experimental: Objective: Determine the fates of single Form A and B when equilibrated in ethanol under anhydrous and aqueous conditions at 40° C.
Procedure: Form B and Form A were charged to separate vials. Ethanol/water (10/3 v/v, 13 vol) and ethanol (13 vol) were added, respectively. The mixtures were stirred at 20° C. or 40° C. overnight.

[6] = Anhydrous suspension equilibrations of Form A at 20° C. and 40° C.; conditions: stirred 7 to 10 days at 40° C.
Experimental: Objective: Examine the effect of suspension equilibration of compound 1 under anhydrous conditions at 20° C. and 40° C. and determine the physical form of the products.
Procedure: Compound 1 (ca 50 mg, 1.0 wt) and the appropriate solvent (1000 μl, 20 vol) were charged to separate vessels and two parallel banks of experiments were stirred for 7 to 10 days at 20° C. and 40° C. After this time the products were cooled, isolated by filtration, washed with recycled maturation solvent, dried under reduced pressure at 20° C. and analyzed by XRPD for evidence of alternative crystalline forms.

[7] = heated at +10° C./min from 20 to 160° C.

Hygroscopicity by DVS [3]: neither being hygroscopic
Form conversion at high water activity ([3]; 40° C., high water activity, stated among the DVS observations): promoted the conversion into Form A
Weight lost during the pre-equilibration [3]: 0.03 % w/w
Output form (XRPD) ([5]; Ethanol/water (10/3 v/v)): mixture Form A and B
Output form (XRPD) ([5]; Ethanol/water (10/3 v/v), listed as Form B (A0822-170-AC1)): A + B
Compound: O=C(NO)c1cnc(N2C[C@@H]3[C@H](C2)[C@H]3NCc2ccc3cc(F)ccc3n2)nc1 [Form B, N-hydroxy 2-{6-[(6-fluoro-quinolin-2-ylmethyl)-amino]-3-aza-bicyclo[3.1.0]hex-3-yl}pyrimidine-5-carboxamide]

Form of residue after heating (XRPD) ([4]; heated at +10° C./min from 20 to 150° C.): converted into isostructural Form B
Compound: O=C(NO)c1cnc(N2C[C@@H]3[C@H](C2)[C@H]3NCc2ccc3cc(F)ccc3n2)nc1 [Form C, N-hydroxy 2-{6-[(6-fluoro-quinolin-2-ylmethyl)-amino]-3-aza-bicyclo[3.1.0]hex-3-yl}pyrimidine-5-carboxamide]
Form of residue after heating (XRPD) ([4]; heated at +10° C./min from 20 to 120° C.): consistent with an isomorphic desolvate/dehydrate

Form of residue after heating (XRPD) [4, 7]: consistent with Form B
Compound: O=C(NO)c1cnc(N2C[C@@H]3[C@H](C2)[C@H]3NCc2ccc3cc(F)ccc3n2)nc1 [Form E, N-hydroxy 2-{6-[(6-fluoro-quinolin-2-ylmethyl)-amino]-3-aza-bicyclo[3.1.0]hex-3-yl}pyrimidine-5-carboxamide]

Continued, molecule first:

Compound: O=C(NO)c1cnc(N2C[C@@H]3[C@H](C2)[C@H]3NCc2ccc3cc(F)ccc3n2)nc1 [Form A + Form B (1/1 w/w)]
Output form (XRPD) ([1]; Ethanol, 20° C.): B (Major
Output form (XRPD) ([1]; Ethanol, 20° C., listed as composite Form A+B): near complete conversion into Form B
Output form (XRPD) ([1]; Ethanol, 40° C.): Form B
Output form (XRPD) ([1]; Ethanol, 40° C., listed as composite Form A+B): complete turnover into single Form B
Output form (XRPD) ([1]; Ethanol/water (10/3 v/v), 20° C.): Form A
Output form (XRPD) ([1]; Ethanol/water (10/3 v/v), 20° C., listed as composite Form A+B): single Form A
Output form (XRPD) ([1]; Ethanol/water (10/3 v/v), 40° C.): Form A
Output form (XRPD) ([1]; Ethanol/water (10/3 v/v), 40° C., listed as composite Form A+B): single Form A

Compound: O=C(NO)c1cnc(N2C[C@@H]3[C@H](C2)[C@H]3NCc2ccc3cc(F)ccc3n2)nc1 [Form A after heating up to 160° C.]
Δwt. Percent ([2]; 0 h @ 18-23° C.): 0.0% w/w
Δwt. Percent ([2]; 1 h @ 18-23° C.): 14.6% w/w
Δwt. Percent ([2]; 24 hr @ 18-23° C.): 13.2% w/w
Δwt. Percent ([2]; 72 hr @ 18-23° C.): 14.6% w/w
Output Form designation (XRPD) [2]: Isostructural
Output Form designation (XRPD) ([2]; listed as Form A dehydrate): did not revert back to Form A

Compound: O=C(NO)c1cnc(N2C[C@@H]3[C@H](C2)[C@H]3NCc2ccc3cc(F)ccc3n2)nc1 [Form A, N-hydroxy 2-{6-[(6-fluoro-quinolin-2-ylmethyl)-amino]-3-aza-bicyclo[3.1.0]hex-3-yl}pyrimidine-5-carboxamide]
Hygroscopicity by DVS [3]: neither being hygroscopic; also recorded: not hygroscopic
Weight lost during the pre-equilibration [3]: ~0.25 % w/w
Form of residue after heating (XRPD) [4, 7]: consistent with Form B
State after heating (1H NMR) ([4]; heated at +10° C./min from 20 to 230° C., cooled): extensive degradation
Large exothermic event (DSC, confirmed by 1H NMR) ([4]; post heating to 200° C.): consistent with degradation
Output form (XRPD) ([5]; Ethanol): converted to Form B
Output form (XRPD) ([5]; Ethanol, listed as Form A (A0822-170-AD1)): Form B
Output form @ 40° C. (XRPD) ([6]; 1,4-dioxane (20 vol)): A + B
Output form @ 40° C. (XRPD) ([6]; 2-Propanol (20 vol)): A + B
Output form @ 40° C. (XRPD) ([6]; Acetone (20 vol)): A + B
Output form @ 40° C. (XRPD) ([6]; Anisole (20 vol)): A + B
Output form @ 40° C. (XRPD) ([6]; Butanol (20 vol)): A + B
Output form @ 40° C. (XRPD) ([6]; Chlorobenzene (20 vol)): A + B
Output form @ 40° C. (XRPD) ([6]; Cumene (20 vol)): A + B
Output form @ 40° C. (XRPD) ([6]; Dichloromethane (20 vol)): A + B
Output form @ 40° C. (XRPD) ([6]; Ethyl acetate (20 vol)): A + B
Output form @ 40° C. (XRPD) ([6]; Ethyl ether (20 vol)): A + B
Output form @ 40° C. (XRPD) ([6]; Heptane (20 vol)): A + B
Output form @ 40° C. (XRPD) ([6]; Isopropyl acetate (20 vol)): A + B
Output form @ 40° C. (XRPD) ([6]; Methyl acetate (20 vol)): A + B
Output form @ 40° C. (XRPD) ([6]; Nitromethane (20 vol)): A + B
Output form @ 40° C. (XRPD) ([6]; Propionitrile (20 vol)): A + B
Output form @ 40° C. (XRPD) ([6]; Tetrahydrofuran (20 vol)): A + B
Output form @ 40° C. (XRPD) ([6]; Trifluorotoluene (20 vol)): A + B
Output form @ 40° C. (XRPD) ([6]; tert-Butylmethyl ether (20 vol)): A + B
